{"source": "patent US20210346461A1", "about": "“UTILIZATION OF ENDOGENOUS OUBAIN-REGULATING COMPOUNDS AND COMPOSITIONS THEREOF IN TREATMENT OF VASCULAR DISEASE” (priority 2020, published 2021)", "key": {"[1]": {"test_system": "pregnant uterine arteries", "assay": "PGI2 release/response in pregnant uterine arteries", "type": "cell-based", "text": "FIG. 1A is a graph of laboratory data indicating PGI2 response in pregnant uterine arteries at various levels of Ouabain, wherein GABA is provided and Taurine is not—both without and with the provision of AII.\nFIG. 1B is a graph of laboratory data indicating PGI2 response in pregnant uterine arteries at various levels of Ouabain, wherein both GABA and Taurine are provided—without and with the provision of AII.\nFIG. 3A is a graph of laboratory data indicating PGI2 response in pregnant uterine arteries at various levels of GABA, wherein neither Taurine nor Ouabain is provided—without and with the provision of AII.\nFIGS. 4A and 4B are graphs of laboratory data illustrating PGI2 response to taurine levels, GABA levels, and the provision of AII in pregnant uterine vessels with lower and higher Ouabain conditions, respectively.\nFIGS. 5B is a graph of laboratory data illustrating PGI2 response in pregnant uterine arteries to the provision of various combinations of GABA, AII, and bicuculine.\n(§1) FIG. 6 is a graph illustrating changes in PGI2 response versus basal levels, in both pregnant uterine vessels and pregnant systemic vessels, when the endothelium is removed."}, "[2]": {"test_system": "pregnant systemic arteries", "assay": "PGI2 release/response in pregnant systemic arteries", "type": "cell-based", "text": "FIG. 3B is a graph of laboratory data indicating PGI2 response in pregnant systemic arteries at various levels of GABA, wherein neither Taurine nor Ouabain is provided—without and with the provision of AII.\nFIGS. 5A is a graph of laboratory data illustrating PGI2 response in pregnant systemic arteries to the provision of various combinations of GABA, AII, and bicuculine.\nas §1"}, "[3]": {"test_system": "intact nonpregnant systemic vessels", "assay": "PGI2 response in intact nonpregnant systemic vessels (GABA dose response curves)", "type": "cell-based, sheep", "settings": "for PGI2 levels on addition of Nanomolar Ouabain: most concentrations of GABA", "text": "FIG. 2A is a graph of laboratory data indicating PGI2 response in intact nonpregnant systemic vessels at various levels of GABA, wherein neither Taurine nor Ouabain is provided without and with the provision of AII.\nFIG. 2B is a graph of laboratory data indicating PGI2 response in intact nonpregnant systemic vessels at various levels of GABA, wherein neither Taurine nor AII is provided—without and with the provision of Ouabain.\nFIG. 2C is a graph of laboratory data indicating PGI2 response in intact nonpregnant systemic vessels at various levels of GABA, wherein AII is provided and Taurine is not—without and with the provision of Ouabain.\nIn FIGS. 2A-2C, GABA dose response curves of systemic vessels in 18 day postpartum sheep are provided. These vessels are believed to be representative of non-pregnant normotensive systemic vessels. […] Accordingly, it appears that at least one of Taurine or EO (or the like) may be needed to up-regulate the GABA-a receptor to augment PGI2 levels in the presence of nanomolar ouabain, or may at least be substantially helpful to increase PGI2 levels."}, "[4]": {"settings": "cited from earlier work"}, "[5]": {"test_system": "Cyclooxygenase (COX)", "settings": "pharmacological blockade of COX; cited from earlier work"}}, "note": "Entries after “also recorded” stand apart in the source; their conditions may differ. Where two headings read alike, the source gives them in different places."}
{"compound": "NCCCC(=O)O", "note": "[GABA]", "values": [{"measurement": "PGI2 release with GABA and AII", "setting": "[1]; FIG. 4A, low levels of taurine and low Ouabain", "value": "PGI2 release increased"}, {"measurement": "PGI2 release on addition of GABA", "setting": "[1]; FIG. 5B col. 2, GABA alone, no AII", "value": "insignificant effect on PGI2 release"}, {"measurement": "PGI2 release on addition of GABA", "setting": "[1]; together with AII", "value": "increase PGI2; also recorded: increased PGI2 release"}, {"measurement": "PGI2 release on exposure to GABA", "setting": "[2]; absence of AII", "value": "increased PGI2 release; also recorded: responded to make PGI2"}, {"measurement": "PGI2 response to GABA", "setting": "[3]; FIG. 2A/2B, 18 day postpartum sheep, no Ouabain, no Taurine", "value": "no PGI2 response; also recorded: did not release significant PGI2"}, {"measurement": "blood pressure", "setting": "[4]; eHTN humans", "value": "lower blood pressure"}, {"measurement": "blood pressure", "setting": "[4]; normotensive patients", "value": "no effect to reduce blood pressure"}]}
{"compound": "C[C@@H]1O[C@@H](O[C@H]2C[C@@H](O)[C@]3(CO)[C@H]4[C@H](O)C[C@]5(C)[C@@H](C6=CC(=O)OC6)CC[C@]5(O)[C@@H]4CC[C@]3(O)C2)[C@H](O)[C@H](O)[C@H]1O", "note": "[Ouabain]", "values": [{"measurement": "PGI2 release with increase in Ouabain", "setting": "[1]; FIGS. 4A/4B, Ouabain from −10M to −9M, low taurine, GABA approx. −7M", "value": "higher PGI2 release"}, {"measurement": "PGI2 levels on addition of Nanomolar Ouabain", "setting": "[3]; FIG. 2B, without AII, no Taurine", "value": "significant increase in PGI2 levels"}, {"measurement": "PGI2 levels on addition of Nanomolar Ouabain", "setting": "[3]; FIG. 2C, with AII, no Taurine", "value": "significant increase in PGI2 levels"}]}
{"compound": "NCCS(=O)(=O)O", "note": "[Taurine, 2-amino-ethane sulfonic acid]", "values": [{"measurement": "overall PGI2 release with vs without Taurine", "setting": "[1]; FIG. 1A vs 1B, regardless of AII presence", "value": "overall PGI2 release appears higher without Taurine"}]}
{"compound": "CC(=O)Oc1ccccc1C(=O)O", "note": "[aspirin]", "values": [{"measurement": "resting blood pressure", "setting": "[5]", "value": "does not substantially affect resting blood pressure"}]}
{"compound": "CN1CCc2cc3c(cc2[C@H]1[C@@H]1OC(=O)c2c1ccc1c2OCO1)OCO3", "note": "[bicuculine]", "values": [{"measurement": "PGI2 release on blocking GABA-a receptors", "setting": "[1]; FIG. 5B, also when additional GABA was added (col. 5)", "value": "substantially reduced PGI2 release"}, {"measurement": "PGI2 release on blocking GABA-a receptors", "setting": "[2]; FIG. 5A", "value": "reduced PGI2 release"}]}
{"compound": "COc1ccc2c(c1)c(CC(=O)O)c(C)n2C(=O)c1ccc(Cl)cc1", "note": "[indomethacin]", "values": [{"measurement": "resting blood pressure", "setting": "[5]", "value": "does not substantially affect resting blood pressure"}]}
{"compound": "NCC(CP(=O)(O)O)c1ccc(Cl)cc1", "note": "(stereo not shown) [phaclofen]", "values": [{"measurement": "PGI2 release on GABA-b receptor blockade", "setting": "[1]; experiments similar to FIGS. 5A/5B in pregnant vessels, data not shown", "value": "did not affect PGI2 release"}]}
{"compound": "Angiotensin II [AII]", "values": [{"measurement": "effect of presence or absence of AII on PGI2 release", "setting": "[1]; FIG. 1A, GABA provided, without taurine, various levels of Ouabain", "value": "negligible effect on PGI2 release"}, {"measurement": "PGI2 release difference responsive to presence or absence of AII", "setting": "[1]; FIG. 3A, GABA concentrations of −7M, −6M, −5M", "value": "no significant PGI2 release difference"}, {"measurement": "PGI2 release with AII vs without AII", "setting": "[1]; FIG. 3A, most levels of GABA, no Taurine, no Ouabain", "value": "more PGI2 is released"}, {"measurement": "PGI2 release on further addition of AII", "setting": "[1]; FIG. 5B col. 4, bicuculine and GABA present", "value": "even further decreased PGI2"}, {"measurement": "PGI2 release in the presence of AII", "setting": "[1]; FIG. 6, endothelium removed", "value": "reduced"}, {"measurement": "relationship between PGI2 release and AII presence", "setting": "[2]; FIG. 3B, various GABA levels, no Taurine, no Ouabain, compared with uterine circuit", "value": "substantially inverted"}, {"measurement": "PGI2 release in the presence of AII", "setting": "[2]; FIG. 6, endothelium removed", "value": "increased"}, {"measurement": "PGI2 formation by presence or absence of Angiotensin II", "setting": "[3]; FIG. 2A, exposed to GABA, without Taurine or EO", "value": "no significant PGI2 formation"}, {"measurement": "PGI2 release on addition of AII", "setting": "[3]; FIG. 2B vs 2C, in the presence of Ouabain, especially at higher GABA", "value": "substantially more PGI2 release"}]}
